Our source for the IC50 values is US20230416228A1 (Forkhead Biotherapeutics, Inc., priority 2020, published 2023).

T1 sequence (Q12778 whole entry T24A/S256A/S319A): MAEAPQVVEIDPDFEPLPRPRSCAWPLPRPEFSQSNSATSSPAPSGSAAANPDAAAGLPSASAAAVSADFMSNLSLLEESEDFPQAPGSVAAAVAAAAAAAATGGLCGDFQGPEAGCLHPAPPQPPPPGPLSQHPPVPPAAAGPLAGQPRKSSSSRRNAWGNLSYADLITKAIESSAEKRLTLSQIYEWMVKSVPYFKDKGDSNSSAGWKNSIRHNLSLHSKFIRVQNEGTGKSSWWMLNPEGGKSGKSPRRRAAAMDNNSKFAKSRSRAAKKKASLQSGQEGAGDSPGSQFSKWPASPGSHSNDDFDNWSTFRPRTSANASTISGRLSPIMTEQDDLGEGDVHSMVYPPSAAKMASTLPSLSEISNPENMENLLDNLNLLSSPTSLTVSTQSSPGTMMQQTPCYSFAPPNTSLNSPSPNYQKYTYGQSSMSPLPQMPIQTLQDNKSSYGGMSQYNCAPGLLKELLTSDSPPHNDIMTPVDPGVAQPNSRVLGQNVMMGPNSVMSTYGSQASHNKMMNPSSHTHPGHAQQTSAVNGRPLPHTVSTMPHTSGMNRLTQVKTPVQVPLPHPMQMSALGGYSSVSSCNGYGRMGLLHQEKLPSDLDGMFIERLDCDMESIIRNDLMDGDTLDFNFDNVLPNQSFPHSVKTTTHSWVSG

The test concerns the target T1, human FOXO1 (constitutively active form Thr24Ala, Ser256Ala, Ser319Ala) (Homo sapiens, UniProt Q12778, S256A/S319A/T24A).
T1 construct: expressed in transfected cells; host or cells: HEK293 cells transfected with pcDNA3.1 plasmid
Briefly: FOXO1 inhibitor activity assay: cell-based transcriptional (luciferase) reporter assay in HEK293 cells. To be noted: HEK293 cells transfected with insulin response element firefly luciferase reporter, FOXO1 and Renilla luciferase; 10-point dose response 50 μM to 2.5 nM; 24 hours. In outline:
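IC50 and maximal inhibition were fitted by 4-parameter logistic regression on normalized firefly/Renilla luciferase ratios. The 0% reference used RFP in place of FOXO1, and the 100% reference was DMSO-only with all plasmids.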
As a reminder, the IC50 is the concentration that inhibits the measured activity by half. Compound `O=C(Nc1cc(-c2nc3cccc(F)c3[nH]2)[nH]n1)c1ccc(N2CCC(CO)CC2)nc1` [Compound A-83, N-[5-(7-fluoro-1H-benzimidazol-2-yl)-1H-pyrazol-3-yl]-6-[4-(hydroxymethyl)-1-piperidyl]pyridine-3-carboxamide] returned an IC50 of less than 0.1 µM.

As to `O=C(Nc1cc(-c2nc3cc(F)ccc3[nH]2)[nH]n1)c1ccc(N2CCOCC2)nc1` [Compound A-82, N-[5-(5-fluoro-1H-benzimidazol-2-yl)-1H-pyrazol-3-yl]-6-morpholino-pyridine-3-carboxamide], the half-maximal inhibitory concentration (IC50) is less than 0.1 µM.

`O=C(Nc1cc(-c2nc3ccccc3[nH]2)[nH]n1)c1ccc(OCCN2CCOCC2)c(Cl)c1` [Compound A-33, N-[5-(1H-benzimidazol-2-yl)-1H-pyrazol-3-yl]-3-chloro-4-(2-morpholinoethoxy)benzamide] yielded an IC50 of 0.1 to 0.3 µM.

`O=C(Nc1cc(-c2nc3cc(Br)ccc3[nH]2)[nH]n1)c1ccc(OCCO)c(Cl)c1` [Compound A-118, N-[5-(5-bromo-1H-benzimidazol-2-yl)-1H-pyrazol-3-yl]-3-chloro-4-(2-hydroxyethoxy)benzamide] gave a concentration for half-maximal inhibition (IC50) of 0.3 to 1 µM.

Take `Cn1nc(NC(=O)c2ccc(N3CC(CO)C3)nc2)cc1-c1nc2ccccc2[nH]1` [Compound A-270, N-[5-(1H-benzimidazol-2-yl)-1-methyl-pyrazol-3-yl]-6-[3-(hydroxymethyl)azetidin-1-yl]pyridine-3-carboxamide]: the IC50 was 0.3 to 1 µM.

Turning to `CN1CCN(c2ccc(C(=O)Nc3cc(-c4nc5ccccc5[nH]4)n(C)n3)cn2)CC1CO` (stereo not drawn) [Compound A-263, N-[5-(1H-benzimidazol-2-yl)-1-methyl-pyrazol-3-yl]-6-[3-(hydroxy-methyl)-4-methyl-piperazin-1-yl]pyridine-3-carboxamide], the 50% inhibitory concentration (IC50) was in the range of 0.1 to 0.3 µM.

`O=C(Nc1cc(-c2nc3cc(Br)ccc3[nH]2)[nH]n1)c1ccc(N2CCC(O)CC2)nc1` [Compound A-90, N-[5-(5-bromo-1H-benzimidazol-2-yl)-1H-pyrazol-3-yl]-6-(4-hydroxy-1-piperidyl)pyridine-3-carboxamide] displayed an IC50 greater than 1 µM.

On to `Cn1nc(NC(=O)c2ccc(N3CCC(N4CCOCC4)CC3)nc2)cc1-c1nc2cc(F)ccc2[nH]1` [Compound A-168, N-[5-(5-fluoro-1H-benzimidazol-2-yl)-1-methyl-pyrazol-3-yl]-6-(4-morpholino-1-piperidyl)pyridine-3-carboxamide], for which the IC50 lay within 0.1 to 0.3 µM.

`CC(=O)N1CCN(c2ccc(C(=O)Nc3cc(-c4nc5ccccc5[nH]4)[nH]n3)cn2)CC1` [Compound A-233]: the 50% inhibitory concentration (IC50) lay in the range of 0.3 to 1 µM.

For the compound `COC1CN(c2ccc(C(=O)Nc3cc(-c4nc5cccc(F)c5[nH]4)[nH]n3)cn2)C1` [Compound A-131, N-[5-(7-fluoro-1H-benzimidazol-2-yl)-1H-pyrazol-3-yl]-6-(3-methoxy-azetidin-1-yl)pyridine-3-carboxamide], the IC50 lay within 0.1 to 0.3 µM.

As for `CN1CCN(c2ccc(C(=O)Nc3cc(-c4nc5ccccc5[nH]4)[nH]n3)nc2)CC1` [Compound A-184, N-[5-(1H-benzimidazol-2-yl)-1H-pyrazol-3-yl]-5-(4-methylpiperazin-1-yl)pyridine-2-carboxamide], the concentration for half-maximal inhibition (IC50) is greater than 1 µM.

With `COc1ccc(C(=O)Nc2cc(C(=O)NC3COC3)[nH]n2)cc1Cl` [Compound A-16, 3-[(3-chloro-4-methoxy-benzoyl)amino]-N-(oxetan-3-yl)-1H-pyrazole-5-carboxamide], the IC50 is greater than 1 µM.

In turn, `COc1cc(F)c2[nH]c(-c3cc(NC(=O)c4ccc(N5CCN(C6COC6)CC5)nc4)nn3C)nc2c1` [Compound A-214, N-[5-(7-fluoro-5-methoxy-1H-benzimidazol-2-yl)-1-methyl-pyrazol-3-yl]-6-[4-(oxetan-3-yl)piperazin-1-yl]pyridine-3-carboxamide] returned an IC50 of less than 0.1 µM.

On to `Cn1nc(NC(=O)c2ccc(N3C4CCC3COC4)nc2)cc1-c1nc2ccccc2[nH]1` [Compound A-285, N-[5-(1H-benzimidazol-2-yl)-1-methyl-pyrazol-3-yl]-6-(3-oxa-8-azabicyclo[3.2.1]octan-8-yl)pyridine-3-carboxamide], for which the IC50 was less than 0.1 µM.

As to `Cn1nc(NC(=O)c2ccc(N3CCOC(CO)C3)nc2)cc1-c1nc2ccccc2[nH]1` (stereo not drawn) [Compound A-224, N-[5-(1H-benzimidazol-2-yl)-1-methyl-pyrazol-3-yl]-6-[2-(hydroxy-methyl)morpholin-4-yl]pyridine-3-carboxamide], the IC50 was in the range of 0.1 to 0.3 µM.

`O=C(Nc1cc(-c2nc3ccccc3[nH]2)[nH]n1)c1ccc(N2CCC(CO)CC2)nc1` [Compound A-67, N-[5-(1H-benzimidazol-2-yl)-1H-pyrazol-3-yl]-6-[4-(hydroxymethyl)-1-piperidyl]pyridine-3-carboxamide] returned an IC50 of less than 0.1 µM.

As to `Cn1nc(NC(=O)c2ccc(N3CCN4C(=O)CC[C@@H]4C3)nc2)cc1-c1nc2ccccc2[nH]1` [Compound A-249, 6-[(8aR)-6-oxo-1,3,4,7,8,8a-hexahydropyrrolo[1,2-a]pyrazin-2-yl]-N-[5-(1H-benzimidazol-2-yl)-1-methyl-pyrazol-3-yl]pyridine-3-carboxamide], the IC50 lay in the range of 0.1 to 0.3 µM.

As for `COC[C@H](C)Nc1ccc(C(=O)Nc2cc(-c3nc4ccccc4[nH]3)[nH]n2)cn1` [Compound A-73, N-[5-(1H-benzimidazol-2-yl)-1H-pyrazol-3-yl]-6-[[(1S)-2-methoxy-1-methyl-ethyl]amino]pyridine-3-carboxamide], the IC50 fell in the range of 0.3 to 1 µM.

Consider `C[C@@H]1CN(c2ccc(C(=O)Nc3cc(-c4nc5ccccc5[nH]4)n(C)n3)cn2)C[C@H](C)N1` [Compound A-255, N-[5-(1H-benzimidazol-2-yl)-1-methyl-pyrazol-3-yl]-6-[(3R,5S)-3,5-dimethylpiperazin-1-yl]pyridine-3-carboxamide], for which the IC50 was less than 0.1 µM.

`Cn1nc(NC(=O)c2ccc(N3CCC[C@H]3C(=O)O)nc2)cc1-c1nc2cc(F)ccc2[nH]1` [Compound A-151, (2S)-1-[5-[[5-(5-fluoro-1H-benzimidazol-2-yl)-1-methyl-pyrazol-3-yl]carbamoyl]-2-pyridyl]pyrrolidine-2-carboxylic acid] had a half-inhibitory concentration (IC50) greater than 1 µM.

For the compound `CCOCCNc1ccc(C(=O)Nc2cc(-c3nc4ccccc4[nH]3)[nH]n2)cn1` [Compound A-61, N-[5-(1H-benzimidazol-2-yl)-1H-pyrazol-3-yl]-6-(2-ethoxyethylamino)-pyridine-3-carboxamide], the IC50 fell in the range of 0.1 to 0.3 µM.

As to `O=C(Nc1cc(-c2nc3cc(C(F)(F)F)ccc3[nH]2)[nH]n1)c1ccc(N2CCC(CO)CC2)nc1` [Compound A-101, 6-[4-(hydroxymethyl)-1-piperidyl]-N-[5-[5-(trifluoromethyl)-1H-benzimidazol-2-yl]-1H-pyrazol-3-yl]pyridine-3-carboxamide], the half-inhibitory concentration (IC50) is greater than 1 µM.

In turn, `COC1CN(c2ccc(C(=O)Nc3cc(-c4nc5ccccc5[nH]4)[nH]n3)cn2)C1` [Compound A-65, N-[5-(1H-benzimidazol-2-yl)-1H-pyrazol-3-yl]-6-(3-methoxyazetidin-1-yl)pyridine-3-carboxamide] returned a half-inhibitory concentration (IC50) of less than 0.1 µM.

In turn, `O=C(Nc1cc(-c2nc3cc(C(F)(F)F)ccc3[nH]2)[nH]n1)c1ccc(OCCO)c(Cl)c1` [Compound A-123, 3-chloro-4-(2-hydroxyethoxy)-N-[5-[5-(trifluoromethyl)-1H-benzimidazol-2-yl]-1H-pyrazol-3-yl]benzamide formic acid] displayed a concentration for half-maximal inhibition (IC50) of less than 0.1 µM.

In turn, `Cn1nc(NC(=O)c2ccc(N3CCN(C4COC4)CC3)cc2)cc1-c1nc2ccccc2[nH]1` [Compound A-215, N-[5-(1H-benzimidazol-2-yl)-1-methyl-pyrazol-3-yl]-4-[4-(oxetan-3-yl)piperazin-1-yl]benzamide] yielded a 50% inhibitory concentration (IC50) of 0.1 to 0.3 µM.

Take `COCCOc1ccc(C(=O)Nc2cc(-c3nc4ccccc4[nH]3)[nH]n2)cc1Cl` [Compound A-29, N-[5-(1H-benzimidazol-2-yl)-1H-pyrazol-3-yl]-3-chloro-4-(2-methoxyethoxy)benzamide]: the IC50 was less than 0.1 µM.

For `Cc1ccc2[nH]c(-c3cc(NC(=O)c4ccc(N5CCC(O)CC5)nc4)n[nH]3)nc2c1` [Compound A-99, 6-(4-hydroxy-1-piperidyl)-N-[5-(5-methyl-1H-benzimidazol-2-yl)-1H-pyrazol-3-yl]pyridine-3-carboxamide], the half-maximal inhibitory concentration (IC50) was 0.1 to 0.3 µM.

In the case of `COCCN1CCN(c2ccc(C(=O)Nc3cc(-c4nc5cc(F)ccc5[nH]4)n(C)n3)cn2)CC1` [Compound A-149], the half-inhibitory concentration (IC50) was 0.1 to 0.3 µM.

The compound `CN1CCN(c2ccc(C(=O)Nc3cc(-c4nc5ccccc5[nH]4)n(CCO)n3)cc2)CC1` [Compound A-201, N-[5-(1H-benzimidazol-2-yl)-1-(2-hydroxyethyl)pyrazol-3-yl]-4-(4-methylpiperazin-1-yl)benzamide] yielded an IC50 of 0.3 to 1 µM.

Consider `COc1ccc2[nH]c(-c3cc(NC(=O)c4ccc(N5CCOCC5)nc4)n[nH]3)nc2c1` [Compound A-111, N-[5-(5-methoxy-1H-benzimidazol-2-yl)-1H-pyrazol-3-yl]-6-morpholino-pyridine-3-carboxamide], for which the 50% inhibitory concentration (IC50) was greater than 1 µM.

Compound `COCCOc1ccc(C(=O)Nc2cc(-c3nc4cc(OC)ccc4[nH]3)[nH]n2)cc1Cl` [Compound A-79, 3-chloro-N-[5-(5-methoxy-1H-benzimidazol-2-yl)-1H-pyrazol-3-yl]-4-(2-methoxyethoxy)benzamide] displayed an IC50 of less than 0.1 µM.

For the compound `O=C(Nc1cc(-c2nc3cc(F)ccc3[nH]2)[nH]n1)c1ccc(OCCO)c(Cl)c1` [Compound A-141, 3-chloro-N-[5-(5-fluoro-1H-benzimidazol-2-yl)-1H-pyrazol-3-yl]-4-(2-hydroxyethoxy)benzamide], the IC50 lay within 0.1 to 0.3 µM.

On to `CN1CCN(c2ncc(C(=O)Nc3cc(-c4nc5ccccc5[nH]4)[nH]n3)cn2)CC1` [Compound A-180, N-[5-(1H-benzimidazol-2-yl)-1H-pyrazol-3-yl]-2-(4-methylpiperazin-1-yl)pyrimidine-5-carboxamide], for which the IC50 fell in the range of 0.1 to 0.3 µM.
